{"source": "patent US20260041093A1", "about": "“Ionic Derivatives Of Aromatic Carboxylic Acid For Use As Plant Stimulants, Method For Stimulating Plants And Use Of These Derivatives For Manufacturing Compositions For Stimulating Plants” (FUNDACJA UNIWERSYTETU IM. ADAMA MICKIEWICZA W POZNANIU, priority 2022, published 2026)", "key": {"[1]": {"tested_on": "winter wheat", "procedure": "The experiment was established using the long strip method, in four repetitions Gross area of each plot was 48 m^2, while the harvest area was 23.25 m^2 net. Following variants of treatment were tested: • 1. Control—no stimulant application, standard fungicide programme • 2. Stimulant application at BBCH 32, standard fungicide programme • 3. Stimulant application at BBCH 32, no fungicide application • 4. Stimulant application at BBCH 55 and 10-12 days later, standard fungicide programme • 5. […] In this experiment, standard NPK fertilization was applied, using both bulk and liquid fertilizers.\nThe experiment was established using the long strip method, in four repetitions Gross area of each plot was 48 m2, while the harvest area was 23.25 m2 net. Following variants of treatment were tested: • 1. Control—no stimulant application, standard fungicide programme, • 2. Stimulant application at BBCH 32, standard fungicide programme • 3. Stimulant application at BBCH 32, no fungicide application • 4. Stimulant application at BBCH 55 and 10-12 days later, standard fungicide programme • 5. […] In the experiment, uniform NPK fertilization was applied, using both bulk and liquid fertilizers."}, "[2]": {"tested_on": "lettuce", "settings": "3-chlorosalicylate 100 mg/L double application, benzothiadiazole salt 50 mg/L single application", "procedure": "The purpose of the study was to determine the effect of foliar spraying with test solutions on lettuce plants (Lactuca sativa L. ‘Zeralda’) under abiotic stress conditions—low temperature. After 7 and 14 days after transplanting the plants to a permanent place, spraying of the plants was carried out. […] After another 7 days, low temperature stress was induced—plants were grown in three glass chambers with a day temperature of 22° C. and night temperatures of 4, 12 and 20° C. until harvest."}, "[3]": {"tested_on": "bell pepper", "test": "Bell pepper seedlings in pots sprayed: height, fresh and dry weight (Example 5)", "format": "in vivo", "procedure": "Pepper seedlings were planted into pots with peat substrate (P9 pots having 0,5 l). Pots were placed in greenhouse and cultivated for a 1 month. […] Plants treated with water only were the untreated control. During the course of the experiment, the height of the plants was measured, and at the end the fresh and dry weight of the aboveground part was evaluated."}, "[4]": {"tested_on": "apple trees (M9 rootstocks)", "settings": "4 sprays at 14-day intervals; 3-chlorosalicylate 100 mg/L, benzothiadiazole salt 25 mg/L", "description": "Flowers were counted during the experiment, and the number of shoots and leaves in the fall."}, "[5]": {"tested_on": "tomato", "test": "Greenhouse tomato sprayed three times: yield, health-promoting substances, leaf chlorophyll (Example 2)", "format": "in vivo", "settings": "80 mg/L, benzothiadiazole salt 30 mg/L, chitosan lactate 50 mg/L", "procedure": "Biostimulant properties were evaluated for the following stimulants: […] The evaluation of stimulant properties included the influence of tested substances on tomato yield, content of health-promoting substances in yield and chlorophyll content in tomato leaves. […] The untreated control plants were sprayed with distilled water. During the experiment, total yield weight, commercial and non-commercial yield and average commercial fruit weight, number of fruits per plant and average fruit weight per plant were evaluated. […] Chlorophyll was measured before each treatment and one day after each treatment using Minolta's SPAD-502 chlorophyll meter."}, "[6]": {"settings": "BBCH 32, standard fungicide protection, 80 mg/L, benzothiadiazole salt 30 mg/L"}, "[7]": {"settings": "BBCH 32, stimulant only, 80 mg/L, benzothiadiazole salt 30 mg/L"}, "[8]": {"settings": "BBCH 55, standard fungicide protection, 80 mg/L, benzothiadiazole salt 30 mg/L"}, "[9]": {"settings": "BBCH 55, without fungicide, 80 mg/L, benzothiadiazole salt 30 mg/L"}, "[10]": {"settings": "first sampling date, 80 mg/L, benzothiadiazole salt 30 mg/L"}, "[11]": {"settings": "last sampling date, late milk, 80 mg/L, benzothiadiazole salt 30 mg/L"}, "[12]": {"settings": "3-chlorosalicylate 80 mg/L, benzothiadiazole salt 30 mg/L"}}, "note": "Where two headings read alike, the source gives them in different places.", "data": [{"smiles": "C[N+](C)(C)CCO.O=C([O-])c1cccc2nnsc12", "values": [{"measurement": "increase in calcium uptake", "setting": "[1]; [6]", "result": 7, "unit": "%"}, {"measurement": "increase in gluten content of wheat grain", "setting": "[1]; [6]", "result": 9, "unit": "%"}, {"measurement": "increase in magnesium uptake", "setting": "[1]; [6]", "result": 8, "unit": "%"}, {"measurement": "increase in nitrogen uptake", "setting": "[1]; [6]", "result": 7, "unit": "%"}, {"measurement": "increase in phosphorus uptake", "setting": "[1]; [6]", "result": 9, "unit": "%"}, {"measurement": "increase in potassium uptake", "setting": "[1]; [6]", "result": 7, "unit": "%"}, {"measurement": "increase in protein content of wheat grain", "setting": "[1]; [6]", "result": 12, "unit": "%"}, {"measurement": "increase in calcium uptake", "setting": "[1]; [7]", "result": 7, "unit": "%"}, {"measurement": "increase in gluten content of wheat grain", "setting": "[1]; [7]", "result": 8, "unit": "%"}, {"measurement": "increase in magnesium uptake", "setting": "[1]; [7]", "result": 9, "unit": "%"}, {"measurement": "increase in nitrogen uptake", "setting": "[1]; [7]", "result": 8, "unit": "%"}, {"measurement": "increase in phosphorus uptake", "setting": "[1]; [7]", "result": 9, "unit": "%"}, {"measurement": "increase in potassium uptake", "setting": "[1]; [7]", "result": 8, "unit": "%"}, {"measurement": "increase in protein content of wheat grain", "setting": "[1]; [7]", "result": 11, "unit": "%"}, {"measurement": "increase in calcium uptake", "setting": "[1]; [8]", "result": 12, "unit": "%"}, {"measurement": "increase in gluten content of wheat grain", "setting": "[1]; [8]", "result": 10, "unit": "%"}, {"measurement": "increase in magnesium uptake", "setting": "[1]; [8]", "result": 11, "unit": "%"}, {"measurement": "increase in nitrogen uptake", "setting": "[1]; [8]", "result": 12, "unit": "%"}, {"measurement": "increase in phosphorus uptake", "setting": "[1]; [8]", "result": 11, "unit": "%"}, {"measurement": "increase in potassium uptake", "setting": "[1]; [8]", "result": 7, "unit": "%"}, {"measurement": "increase in protein content of wheat grain", "setting": "[1]; [8]", "result": 12, "unit": "%"}, {"measurement": "increase in calcium uptake", "setting": "[1]; [9]", "result": 8, "unit": "%"}, {"measurement": "increase in gluten content of wheat grain", "setting": "[1]; [9]", "result": 9, "unit": "%"}, {"measurement": "increase in magnesium uptake", "setting": "[1]; [9]", "result": 10, "unit": "%"}, {"measurement": "increase in nitrogen uptake", "setting": "[1]; [9]", "result": 15, "unit": "%"}, {"measurement": "increase in phosphorus uptake", "setting": "[1]; [9]", "result": 11, "unit": "%"}, {"measurement": "increase in potassium uptake", "setting": "[1]; [9]", "result": 6, "unit": "%"}, {"measurement": "increase in protein content of wheat grain", "setting": "[1]; [9]", "result": 11, "unit": "%"}, {"measurement": "fresh weight of aboveground part higher than control", "setting": "[1]; first sampling date (beginning of shooting), first of two sprayed objects (with / without fungicide, respectively), 80 mg/L, benzothiadiazole salt 30 mg/L", "result": 11, "unit": "%"}, {"measurement": "dry root mass higher than control", "setting": "[1]; [10]", "result": 14, "unit": "%"}, {"measurement": "fresh root mass higher than control", "setting": "[1]; [10]", "result": 12, "unit": "%"}, {"measurement": "dry weight of aboveground part higher than control", "setting": "[1]; first sampling date, first of two sprayed objects, 80 mg/L, benzothiadiazole salt 30 mg/L", "result": 10, "unit": "%"}, {"measurement": "fresh weight of aboveground part higher than control", "setting": "[1]; first sampling date, second of two sprayed objects (with / without fungicide, respectively), 80 mg/L, benzothiadiazole salt 30 mg/L", "result": 14, "unit": "%"}, {"measurement": "dry weight of aboveground part higher than control", "setting": "[1]; first sampling date, second of two sprayed objects, 80 mg/L, benzothiadiazole salt 30 mg/L", "result": 14, "unit": "%"}, {"measurement": "SPAD chlorophyll readings versus control", "setting": "[1]; first term, stimulant at BBCH 32, with or without fungicide", "result": "significantly higher"}, {"measurement": "more aboveground biomass, BBCH 55 treatment compared to control", "setting": "[1]; [11]", "result": 30, "unit": "%"}, {"measurement": "more aboveground biomass, BBCH 55 treatment compared to plants sprayed at an earlier stage", "setting": "[1]; [11]", "result": 13, "unit": "%"}, {"measurement": "more root biomass, BBCH 55 treatment compared to control", "setting": "[1]; [11]", "result": 21, "unit": "%"}, {"measurement": "more root biomass, BBCH 55 treatment compared to plants sprayed at an earlier stage", "setting": "[1]; [11]", "result": 14, "unit": "%"}, {"measurement": "fresh and dry root weight versus other experimental facilities", "setting": "[1]; second sampling date", "result": "comparable"}, {"measurement": "fresh and dry matter yields versus other experimental facilities", "setting": "[1]; second sampling date, end of heading", "result": "comparable"}, {"measurement": "SPAD chlorophyll readings", "setting": "[1]; second term, stimulant at BBCH 32 without fungicide versus other objects", "result": "highest"}, {"measurement": "chlorophyll content of wheat leaves versus control", "setting": "[1]; third term, with or without fungicide", "result": "significantly higher"}, {"measurement": "Head weight, 4° C.", "setting": "[2]; night temperature 4° C.", "result": 47.6, "unit": "b g/plant"}, {"measurement": "Head weight, 12° C.", "setting": "[2]; night temperature 12° C.", "result": 54.9, "unit": "b c g/plant"}, {"measurement": "Head weight, 20° C.", "setting": "[2]; night temperature 20° C.", "result": 65.1, "unit": "b g/plant"}, {"measurement": "Average dry mass", "setting": "[3]; 20 mg/L", "result": 13.3, "unit": "c g"}, {"measurement": "Average fresh mass", "setting": "[3]; 20 mg/L", "result": 94.6, "unit": "c g"}, {"measurement": "Average plant height, initial height, before first treatment", "setting": "[3]; 20 mg/L", "result": 43.5, "unit": "b mm"}, {"measurement": "Average plant height, second treatment", "setting": "[3]; 20 mg/L", "result": 150.8, "unit": "b mm"}, {"measurement": "Average plant height, third treatment", "setting": "[3]; 20 mg/L", "result": 226.6, "unit": "c mm"}, {"measurement": "Plant height increase", "setting": "[3]; 20 mg/L", "result": 183.1, "unit": "c mm"}, {"measurement": "Average dry mass", "setting": "[3]; [12]", "result": 15.6, "unit": "g·days"}, {"measurement": "Average fresh mass", "setting": "[3]; [12]", "result": 115.5, "unit": "g·days"}, {"measurement": "Average plant height, initial height, before first treatment", "setting": "[3]; [12]", "result": 39.9, "unit": "a mm"}, {"measurement": "Average plant height, second treatment", "setting": "[3]; [12]", "result": 142.9, "unit": "a mm"}, {"measurement": "Average plant height, third treatment", "setting": "[3]; [12]", "result": 270.8, "unit": "d mm"}, {"measurement": "Plant height increase", "setting": "[3]; [12]", "result": 230.9, "unit": "d mm"}, {"measurement": "Average number of flowers per plant", "setting": "[4]", "result": 31.1, "unit": "b"}, {"measurement": "Average number of leaves per plant", "setting": "[4]", "result": 47.1, "unit": "b"}, {"measurement": "Average number of shoots per plant", "setting": "[4]", "result": 6.5, "unit": "b"}, {"measurement": "Chlorophyll content (SPAD), a day after treatment #1", "setting": "[5]", "result": 63.5, "unit": "b"}, {"measurement": "Chlorophyll content (SPAD), a day after treatment #2", "setting": "[5]", "result": 61.3, "unit": "b"}, {"measurement": "Chlorophyll content (SPAD), a day after treatment #3", "setting": "[5]", "result": 63.2, "unit": "b"}, {"measurement": "Chlorophyll content (SPAD), Treatment #1", "setting": "[5]; before treatment #1", "result": 51.2, "unit": "a"}, {"measurement": "Chlorophyll content (SPAD), Treatment #2", "setting": "[5]; before treatment #2", "result": 51.4, "unit": "a"}, {"measurement": "Chlorophyll content (SPAD), Treatment #3", "setting": "[5]; before treatment #3", "result": 51.1, "unit": "a"}, {"measurement": "Average fruit weight per plant", "setting": "[5]; spray 3x", "result": 148.70, "unit": "b g"}, {"measurement": "Average weight of marketable fruit", "setting": "[5]; spray 3x", "result": 26.13, "unit": "b kg/m^2"}, {"measurement": "Commercial yield", "setting": "[5]; spray 3x", "result": 18.13, "unit": "b kg/m^2"}, {"measurement": "Number of fruits per plant", "setting": "[5]; spray 3x", "result": 4.17, "unit": "b"}, {"measurement": "Total yield", "setting": "[5]; spray 3x", "result": 18.83, "unit": "b kg/m^2"}, {"measurement": "Calcium", "setting": "[5]; tomato fruits", "result": 91.4, "unit": "a mg/kg"}, {"measurement": "Lycopene", "setting": "[5]; tomato fruits", "result": 36.5, "unit": "b mg/kg"}, {"measurement": "Magnesium", "setting": "[5]; tomato fruits", "result": 106.3, "unit": "b mg/kg"}, {"measurement": "Vit. C", "setting": "[5]; tomato fruits", "result": 200.1, "unit": "c mg/kg"}, {"measurement": "Vit. E", "setting": "[5]; tomato fruits", "result": 25.9, "unit": "b mg/kg"}, {"measurement": "°Brix (sugar content of the liquid expressed in degree of Brix)", "setting": "[5]; tomato fruits", "result": 5.92, "unit": "b g"}]}]}
